Source: paper PMC7904743, “WIDOCK: a reactive docking protocol for virtual screening of covalent inhibitors” (Journal of Computer-Aided Molecular Design, 2021)
Like-named read-outs stand apart in the source and are kept apart here.

How the values were obtained:
MurA [1] = target: T1, MurA (Escherichia coli, UniProt P0A749); conditions: cited from earlier work; for MurA RA (%): residual activity at 100 μM, single point
[2] = target: T2, Recombinant human microsomal MAO-A (Homo sapiens, UniProt P21397); test: MAO-A activity assay (fluorimetric, Amplex Red, p-tyramine); format: biochemical; conditions: for RA: MAO-A residual activity, active if lower than 60%
T2 construct: purchased Sigma Aldrich; host or cells: baculovirus infected insect cells (BTI-TN-5B1-4)
T2 sequence (P21397 1-527): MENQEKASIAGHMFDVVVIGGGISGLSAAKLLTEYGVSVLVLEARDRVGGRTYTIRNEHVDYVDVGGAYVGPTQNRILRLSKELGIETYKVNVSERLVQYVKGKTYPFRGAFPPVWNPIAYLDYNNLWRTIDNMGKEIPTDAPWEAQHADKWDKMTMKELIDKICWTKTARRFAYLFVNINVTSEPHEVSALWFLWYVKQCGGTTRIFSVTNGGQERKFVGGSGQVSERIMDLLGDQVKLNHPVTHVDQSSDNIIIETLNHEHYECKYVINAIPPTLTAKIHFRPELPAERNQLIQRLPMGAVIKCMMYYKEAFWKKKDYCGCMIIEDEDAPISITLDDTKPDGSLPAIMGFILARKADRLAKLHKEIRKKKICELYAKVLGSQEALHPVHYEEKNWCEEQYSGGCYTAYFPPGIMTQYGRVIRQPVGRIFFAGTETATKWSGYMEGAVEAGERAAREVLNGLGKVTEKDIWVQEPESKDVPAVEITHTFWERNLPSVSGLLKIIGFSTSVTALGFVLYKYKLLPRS
Method: The effects of the test compounds on MAO-A were investigated using a fluorimetric assay, following a previously described methodology. The inhibitory activity of the compounds was evaluated by their effects on the production of hydrogen peroxide (H2O2) from p-tyramine. The production of H2O2 was detected using Amplex Red reagent in the presence of horseradish peroxidase, where a highly sensitive fluorescent product, resorufin, is produced at stoichiometric amounts. Recombinant human microsomal MAO-A enzyme expressed in baculovirus infected insect cells (BTI-TN-5B1-4), horse-radish peroxidase (type II, lyophilized powder), and p-tyramine hydrochloride were obtained from Sigma Aldrich. 10-Acetyl-3,7-dihydroxyphenoxazine (Amplex Red reagent) was synthesized as described in the literature.
Briefly, 100 µL 50 mM sodium phosphate buffer (pH 7.4, 0.05% Triton X-114) containing the compounds and MAO-A were incubated for 30 min at 37 °C in a flat-bottomed black 96-well microplate, and placed in a dark microplate reader chamber. After the pre-incubation, the reaction was started by adding the final concentrations of 200 µM Amplex Red reagent, 2 U/mL horseradish peroxidase, and 1 mM p-tyramine (final volume, 200 µL). The production of resorufin was quantified based on the fluorescence generated (λex = 530 nm, λem = 590 nm) at 37 °C over a period of 30 min, during which time the fluorescence increased linearly. For control experiments, DMSO was used instead of the appropriate dilutions of the compounds in DMSO. To determine the blank value (b), phosphate-buffered solution replaced the enzyme solution. The initial velocities were calculated from the trends obtained, with each measurement carried out in duplicate. The specific fluorescence emission to obtain the final result was calculated after subtraction of the blank activity (b).

CatB [3] = target: T3, CatB (Homo sapiens, UniProt P07858); test: CatB single point enzyme activity assay (residual activity); conditions: read-out: RA
Method: (§1) These fragments were measured in single point enzyme activity assays at 100 μM concentration against MurA and CatB.

MurA [4] = target: T1, MurA; test: biochemical; conditions: read-out: RA
Method: as §1

CatB [5] = target: T3, CatB; set-up: method as in PMID 30321804; conditions: residual activity at 100 μM, single point; cited from earlier work
[6] = Kinetic measurement of adduct formation with L-glutathione (GSH) by HPLC–MS; format: physicochemical; set-up: unit not given here
Method: Electrophilic fragments tested against MurA, CatB and MAO-A (25–53, structures shown in Supporting Figure S2 and SMILES provided in Supporting Table S1) represent eight different warhead chemotypes reacting via two reaction mechanisms: Michael-type nucleophilic addition and nucleophilic substitution. The intrinsic thiol reactivities (see Table 1) were determined by kinetic measurement of adduct formation with L-glutathione (GSH), a widely used cysteine surrogate, by an HPLC–MS methodology, as described in the referred study.

[7] = cited from earlier work; for GSH half-life: half-life of adduct formation with L-glutathione
NUDT7 = conditions: protein labeling at 200 μM; experimental actives if % labeling higher than 50%; cited from earlier work
OTUB2 = OTUB2 protein labeling; experimental actives if % labeling higher than 50%; cited from earlier work
[8] = thiol reactivity, cited from earlier work
[9] = natural log of average kinetic rate constant
[10] = natural log of average rate constant

T1 sequence (P0A749 whole entry): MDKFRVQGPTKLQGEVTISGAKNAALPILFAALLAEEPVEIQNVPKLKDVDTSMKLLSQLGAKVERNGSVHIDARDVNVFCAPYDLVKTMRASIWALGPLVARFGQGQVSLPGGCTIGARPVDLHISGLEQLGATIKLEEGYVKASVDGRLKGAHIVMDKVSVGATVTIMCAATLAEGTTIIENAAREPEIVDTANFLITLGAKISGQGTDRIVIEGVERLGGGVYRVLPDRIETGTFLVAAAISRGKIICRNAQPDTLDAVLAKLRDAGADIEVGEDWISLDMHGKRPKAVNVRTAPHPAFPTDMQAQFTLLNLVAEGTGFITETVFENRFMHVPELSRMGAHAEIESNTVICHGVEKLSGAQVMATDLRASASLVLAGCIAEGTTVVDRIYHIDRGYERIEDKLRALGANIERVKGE

Row | SMILES | MurA RA (%) (MurA [1]) | RA [2] | remaining activity at 100 µM (CatB [3]) | remaining activity at 100 µM (MurA [4]) | CatB RA (%) (CatB [5]) | Reactivity, Experimental ln(k) vs GSH [6] | GSH half-life [7] | lnk ([7]; […]) | MAO-A inhibition (experimental) ([2]; MAO-A inhibitory assay) | experimental activity class against MurA (MurA [1]; < 60% residual activity at 100 μM considered active) | NUDT7 % labeling (NUDT7) | OTUB2 % labeling (OTUB2) | ln(avg k) [8, 9] | ln(avg k) [8, 10]
1 | COC(=O)/C=C/C(=O)OC [Compound 25, COC(=O)/C=C/C(=O)OC] | 50% | 80% | 106% | 50% | 106% |  |  |  |  |  |  |  |  | 
2 | C/C=C/C(=O)OC [Compound 26, C/C=C/C(=O)OC] | 41% | 68% | 97% | 41% | 97% | -3.401 | 20.8 h |  |  |  |  |  |  | 
3 | CCOC(=O)/C=C/c1ccccc1 [Compound 27, CCOC(=O)/C=C/c1ccccc1] | 92% | 97% | 79% | 92% | 79% | -4.242 | 48.2 h |  |  |  |  |  |  | 
4 | C=CC(=O)N(C)C [Compound 29, C=CC(=O)N(C)C] | 95% | 75% | 75% | 95% | 75% | -5.211 | 127 h |  |  |  |  |  |  | 
5 | C=CC(=O)Nc1ccccc1 [Compound 30, C=CC(=O)Nc1ccccc1] | 78% | 99% | 88% | 78% | 88% |  |  |  |  |  |  |  |  | 
6 | C=CS(=O)(=O)c1ccccc1 [Compound 34, C=CS(=O)(=O)c1ccccc1] | 12% | 52% | 87% | 12% | 87% |  |  | 1.45 |  |  |  |  |  | 
7 | O=S(=O)(/C=C/c1ccccc1)c1ccccc1 [Compound 35, O=S(=O)(/C=C/c1ccccc1)c1ccccc1] | 82% | 87% | 77% | 82% | 77% | -4.913 | 94.3 h |  |  |  |  |  |  | 
8 | CCOC(=O)C#Cc1ccccc1 [Compound 36, CCOC(=O)C#Cc1ccccc1] | 75% | 94% | 70% | 75% | 70% | -1.906 | 4.66 h |  |  |  |  |  |  | 
9 | CC#CC(=O)OCC [Compound 37, CC#CC(=O)OCC] | 82% | 84% | 84% | 82% | 84% | -3.194 | 16.9 h |  |  |  |  |  |  | 
10 | CN1C(=O)C=CC1=O [Compound 38, CN1C(=O)C=CC1=O] | 1% | 5% | 91% | 1% | 91% | 1.936 | < 0.1 h |  |  |  |  |  |  | 
11 | O=C1C=CC(=O)N1Cc1ccccc1 [Compound 39, O=C1C=CC(=O)N1Cc1ccccc1] | 2% | 0% | 87% | 2% | 87% | 1.936 | < 0.1 h |  | active |  |  |  |  | 
12 | O=C1C=CC(=O)N1C1CCCCC1 [Compound 40, O=C1C=CC(=O)N1C1CCCCC1] | 1% | 3% | 89% | 1% | 89% | 1.936 | < 0.1 h |  |  |  |  |  |  | 
13 | O=C1C=CC(=O)N1c1ccccc1 [Compound 41, O=C1C=CC(=O)N1c1ccccc1] | 1% | 1% | 82% | 0.8% | 82% | 1.936 | < 0.1 h |  |  | experimental MurA actives |  |  |  | 
14 | CC(C)(C)OC(=O)N1CC=CC1=O [Compound 42, CC(C)(C)OC(=O)N1CC=CC1=O] | 92% | 47% | 85% | 92% | 85% | -5.449 | 161 h |  |  |  |  |  |  | 
15 | O=C1C=CCO1 [Compound 43, O=C1C=CCO1] | 75% | 99% | 99% | 75% | 99% | -5.634 | 194 h |  |  |  |  |  |  | 
16 | O=C(CCl)Nc1ccccc1 [Compound 48, O=C(CCl)Nc1ccccc1] | 110% | 95% | 88% | 110% | 88% |  |  |  |  |  |  |  |  | 
17 | Cc1cc(NC(=O)CCl)n(-c2ccccc2F)n1 [PCM-0103066, Cc1cc(NC(=O)CCl)n(-c2ccccc2F)n1] |  |  |  |  |  |  |  |  |  |  | 0% | 44% | -15.986 | -15.986
18 | O=C(CCl)N1CCC(c2nc3ccccc3s2)CC1 [PCM-0103068, O=C(CCl)N1CCC(c2nc3ccccc3s2)CC1] |  |  |  |  |  |  |  |  |  |  | 65% | 0% | -15.772 | -15.772
19 | COCC(=O)NNC(=O)CCl [PCM-0103070, COCC(=O)NNC(=O)CCl] |  |  |  |  |  |  |  |  |  |  | 0% | 0% | -17.475 | -17.475
20 | O=C(CCl)N1CCCc2cccc(F)c21 [PCM-0103071, O=C(CCl)N1CCCc2cccc(F)c21] |  |  |  |  |  |  |  |  |  |  | 40% | 0% | -16.007 | -16.007
21 | Cc1ccsc1CNC(=O)CCl [PCM-0103075, Cc1ccsc1CNC(=O)CCl] |  |  |  |  |  |  |  |  |  |  | 0% | 55% | -16.632 | -16.632
22 | O=C(CCl)Nc1ccon1 [PCM-0103077, O=C(CCl)Nc1ccon1] |  |  |  |  |  |  |  |  |  |  | 0% | 30% | -16.220 | -16.220
23 | O=C(CCl)NCc1ccc(Cl)s1 [PCM-0103080, O=C(CCl)NCc1ccc(Cl)s1] |  |  |  |  |  |  |  |  |  |  | 0% | 79% | -16.506 | -16.506
24 | CN(Cc1cc(Br)cs1)C(=O)CCl [PCM-0103081, CN(Cc1cc(Br)cs1)C(=O)CCl] |  |  |  |  |  |  |  |  |  |  | 0% | 0% | -15.601 | -15.601
25 | Cc1ccc(N(C(=O)CCl)C2C=CS(=O)(=O)C2)cc1C (centres unmarked) [PCM-0103082, Cc1ccc(N(C(=O)CCl)C2C=CS(=O)(=O)C2)cc1C] |  |  |  |  |  |  |  |  |  |  | 15% | 0% | -15.512 | -15.512
